According to US11850243B2, “Dihydropyridine compositions and methods for treating neurological disorders” (Cavalon Therapeutics, Inc., priority 2021, dated 2023):

Columns and labels:
Parkinson's disease = assay: STEADY-PD III post-hoc analysis: isradipine exposure versus need for antiparkinson therapy and levodopa equivalent dose; format: in vivo, human
[1] = population pharmacokinetic modeling of plasma isradipine in STEADY-PD III by tertile groups; settings: IR 5 mg twice daily; for CL/F: steady state; for Cave,ss: based on AUC24
[2] = tested on: dopaminergic neurons in the striatum and substantia nigra; settings: 6-hydroxydopamine mouse model, cited from earlier work
SNc DA neurons = settings: chronic treatment in vivo, cited from earlier work
Cav1.3 = Cav1.3 (Homo sapiens, UniProt Q01668); settings: in vitro; read-out: IC50 for inhibition of calcium currents through Cav1.3 (converted); cited from earlier work
Cav1.3, sequence (Q01668 whole entry): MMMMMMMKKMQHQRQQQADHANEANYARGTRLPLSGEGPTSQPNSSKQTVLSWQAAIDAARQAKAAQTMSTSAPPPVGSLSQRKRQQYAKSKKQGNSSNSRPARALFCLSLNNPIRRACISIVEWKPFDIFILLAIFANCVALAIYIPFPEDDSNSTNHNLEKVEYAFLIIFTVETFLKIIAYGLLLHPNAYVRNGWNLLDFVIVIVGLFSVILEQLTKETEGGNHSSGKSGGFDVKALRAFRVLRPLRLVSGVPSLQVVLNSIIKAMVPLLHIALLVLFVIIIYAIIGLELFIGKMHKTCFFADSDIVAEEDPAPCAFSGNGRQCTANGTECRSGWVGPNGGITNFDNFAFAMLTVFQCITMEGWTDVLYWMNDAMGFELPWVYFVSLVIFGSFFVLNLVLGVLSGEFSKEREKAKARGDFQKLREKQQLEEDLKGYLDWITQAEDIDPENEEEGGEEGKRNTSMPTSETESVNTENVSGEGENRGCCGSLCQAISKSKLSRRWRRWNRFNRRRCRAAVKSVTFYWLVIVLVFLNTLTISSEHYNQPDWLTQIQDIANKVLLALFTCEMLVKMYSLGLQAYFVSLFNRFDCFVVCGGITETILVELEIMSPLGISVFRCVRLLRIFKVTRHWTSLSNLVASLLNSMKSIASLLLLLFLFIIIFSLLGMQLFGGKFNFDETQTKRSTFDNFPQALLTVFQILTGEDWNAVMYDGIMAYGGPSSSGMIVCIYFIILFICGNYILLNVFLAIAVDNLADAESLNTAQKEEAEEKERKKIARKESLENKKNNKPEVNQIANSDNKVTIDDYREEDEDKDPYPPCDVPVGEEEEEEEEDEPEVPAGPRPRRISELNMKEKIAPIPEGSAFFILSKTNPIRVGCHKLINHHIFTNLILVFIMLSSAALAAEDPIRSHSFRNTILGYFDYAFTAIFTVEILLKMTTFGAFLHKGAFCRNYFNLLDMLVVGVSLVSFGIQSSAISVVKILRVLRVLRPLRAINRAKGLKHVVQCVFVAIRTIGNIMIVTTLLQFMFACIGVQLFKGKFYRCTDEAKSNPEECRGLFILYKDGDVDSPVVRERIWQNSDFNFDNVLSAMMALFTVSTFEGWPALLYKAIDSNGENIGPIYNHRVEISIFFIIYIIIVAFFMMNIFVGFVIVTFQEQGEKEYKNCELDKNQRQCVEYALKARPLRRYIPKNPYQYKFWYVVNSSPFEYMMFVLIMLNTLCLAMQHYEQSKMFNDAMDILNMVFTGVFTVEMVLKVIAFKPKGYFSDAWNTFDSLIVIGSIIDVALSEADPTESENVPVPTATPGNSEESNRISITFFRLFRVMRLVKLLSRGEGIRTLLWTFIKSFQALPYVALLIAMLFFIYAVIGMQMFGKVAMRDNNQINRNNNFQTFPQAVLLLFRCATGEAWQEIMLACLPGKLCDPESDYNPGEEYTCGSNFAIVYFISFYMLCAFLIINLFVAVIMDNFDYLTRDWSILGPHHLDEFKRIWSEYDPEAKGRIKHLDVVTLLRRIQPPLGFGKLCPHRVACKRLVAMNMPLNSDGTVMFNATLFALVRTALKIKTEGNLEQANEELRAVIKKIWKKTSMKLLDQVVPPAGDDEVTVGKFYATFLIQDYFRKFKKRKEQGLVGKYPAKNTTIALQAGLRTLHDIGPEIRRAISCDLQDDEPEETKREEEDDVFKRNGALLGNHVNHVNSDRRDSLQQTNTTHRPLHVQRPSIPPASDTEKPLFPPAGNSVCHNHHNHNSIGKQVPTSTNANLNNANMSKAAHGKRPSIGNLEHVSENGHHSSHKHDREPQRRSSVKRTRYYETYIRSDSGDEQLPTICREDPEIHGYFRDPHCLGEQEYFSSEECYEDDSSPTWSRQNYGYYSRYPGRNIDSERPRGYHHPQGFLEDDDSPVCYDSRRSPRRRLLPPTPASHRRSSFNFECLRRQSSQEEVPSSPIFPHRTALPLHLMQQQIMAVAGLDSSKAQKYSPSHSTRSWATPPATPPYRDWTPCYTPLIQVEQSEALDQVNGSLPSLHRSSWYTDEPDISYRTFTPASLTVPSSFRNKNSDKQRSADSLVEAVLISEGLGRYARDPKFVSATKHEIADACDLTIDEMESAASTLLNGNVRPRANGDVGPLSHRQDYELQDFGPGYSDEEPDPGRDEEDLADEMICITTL
Cav1.3, sequence (P54284 whole entry partner): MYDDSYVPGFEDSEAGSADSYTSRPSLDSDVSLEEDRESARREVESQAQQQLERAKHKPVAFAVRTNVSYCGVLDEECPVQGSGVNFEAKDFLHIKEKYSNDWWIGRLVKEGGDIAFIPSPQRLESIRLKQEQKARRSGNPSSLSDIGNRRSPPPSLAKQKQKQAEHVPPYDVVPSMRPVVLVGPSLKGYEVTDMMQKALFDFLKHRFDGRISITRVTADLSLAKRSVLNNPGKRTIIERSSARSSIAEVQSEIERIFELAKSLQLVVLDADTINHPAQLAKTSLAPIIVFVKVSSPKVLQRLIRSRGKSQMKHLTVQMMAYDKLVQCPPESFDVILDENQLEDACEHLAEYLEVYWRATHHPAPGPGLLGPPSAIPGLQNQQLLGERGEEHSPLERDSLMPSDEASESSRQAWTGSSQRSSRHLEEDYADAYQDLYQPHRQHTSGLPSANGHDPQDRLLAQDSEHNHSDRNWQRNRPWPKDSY
Cav1.3, sequence (P54289 25-946 partner limits assumed): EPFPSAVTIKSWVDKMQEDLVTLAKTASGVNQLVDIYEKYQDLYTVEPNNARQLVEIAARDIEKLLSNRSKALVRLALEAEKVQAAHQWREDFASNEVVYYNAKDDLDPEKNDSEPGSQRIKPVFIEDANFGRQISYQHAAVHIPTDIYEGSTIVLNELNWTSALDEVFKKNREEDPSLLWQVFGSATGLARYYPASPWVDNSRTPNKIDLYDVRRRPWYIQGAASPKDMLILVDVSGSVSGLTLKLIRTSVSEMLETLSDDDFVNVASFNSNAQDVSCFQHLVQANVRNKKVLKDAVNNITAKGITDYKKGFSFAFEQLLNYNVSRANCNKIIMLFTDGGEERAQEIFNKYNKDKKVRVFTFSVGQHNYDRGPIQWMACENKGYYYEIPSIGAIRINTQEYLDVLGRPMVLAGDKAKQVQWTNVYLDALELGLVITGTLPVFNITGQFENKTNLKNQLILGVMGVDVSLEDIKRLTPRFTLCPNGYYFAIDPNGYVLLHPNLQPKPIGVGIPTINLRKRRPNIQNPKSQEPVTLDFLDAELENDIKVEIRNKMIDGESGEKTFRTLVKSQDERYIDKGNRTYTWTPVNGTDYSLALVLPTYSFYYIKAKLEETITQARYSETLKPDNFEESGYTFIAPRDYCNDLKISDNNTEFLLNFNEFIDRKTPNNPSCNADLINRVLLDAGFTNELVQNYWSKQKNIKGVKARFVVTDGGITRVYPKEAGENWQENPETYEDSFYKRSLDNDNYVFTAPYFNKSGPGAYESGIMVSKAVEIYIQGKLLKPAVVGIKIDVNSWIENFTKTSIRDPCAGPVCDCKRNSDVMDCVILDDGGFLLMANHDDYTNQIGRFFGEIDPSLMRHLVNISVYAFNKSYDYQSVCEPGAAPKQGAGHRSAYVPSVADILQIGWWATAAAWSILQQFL
Cav1.3, sequence (P54289 947-1103 partner limits assumed): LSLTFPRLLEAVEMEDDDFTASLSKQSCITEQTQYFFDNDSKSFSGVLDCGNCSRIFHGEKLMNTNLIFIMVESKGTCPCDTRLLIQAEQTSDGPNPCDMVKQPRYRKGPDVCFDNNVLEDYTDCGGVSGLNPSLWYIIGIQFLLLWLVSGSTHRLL

[3] = Middle CL/F, Middle AUC24 tertile

Compound: COC(=O)C1=C(C)NC(C)=C(C(=O)OC(C)C)C1c1cccc2nonc12 (centres unmarked) [isradipine]
- HR for time to need therapy (Parkinson's disease; highest AUC24 exposure group vs placebo, 95% CI 0.45-0.97): 0.66
- decrease in risk of needing antiparkinson treatment (Parkinson's disease; trend per CL/F tertile decrement or AUC24 tertile increment, vs placebo, p for trend=0.02): 13%
- HR for time to first initiation of antiparkinson therapy (Parkinson's disease; trend per tertile, vs placebo, 95% CI:0.78-0.98): 0.87
- Cmin,ss ([1]; Fast CL/F, Low AUC24 tertile): 0.56 ng/mL
- CL/F ([1]; Fast CL/F, Low AUC24 tertile): 477 L/h
- Cave,ss ([1]; Fast CL/F, Low AUC24 tertile): 0.9 ng/mL
- Cmin,ss [1, 3]: 0.86 ng/mL
- CL/F [1, 3]: 296 L/h
- Cave,ss [1, 3]: 1.4 ng/mL
- Cmin,ss ([1]; Slow CL/F, High AUC24 tertile): 1.40 ng/mL
- CL/F ([1]; Slow CL/F, High AUC24 tertile): 195 L/h
- Cave,ss ([1]; Slow CL/F, High AUC24 tertile): 2.1 ng/mL
- plasma concentration required to inhibit neuronal death by 50% (IC50) ([2]; systemic administration, plasma concentration): 5 to 7 ng/mL
- protection of dopaminergic neurons in the striatum and substantia nigra ([2]; systemic administration): concentration-dependent protection
- threshold plasma concentration for protection against neuronal death ([2]; inflection point in the concentration-response curve): 1.5 to 2 ng/mL
- high basal rate of mitophagy (SNc DA neurons; SNc DA neurons): diminished
- mitochondrial oxidant stress (SNc DA neurons; SNc DA neurons): significantly lowered
- cytosolic [Ca2+] in SNc DA neurons (SNc DA neurons): sustained reduction
- mitochondrial mass in SNc DA neurons (SNc DA neurons): increased
- IC50 (Cav1.3): ~8.08 nM
